Measurements published in publication PMC5099944, “Design, synthesis and biological evaluation of hybrids of β-carboline and salicylic acid as potential anticancer and apoptosis inducing agents” (Scientific Reports, 2016).
Entries after “also recorded” stand apart in the source; their conditions may differ.

Legend:
[1] = system: SMMC-7721 cells; assay: MTT assay, proliferation of SMMC-7721 cells; format: cell-based, human; conditions: Homo sapiens; for IC50: SMMC-7721, 48 h, read-out: In vitro cytotoxicity (IC50) SMMC-7721, MTT assay, 48 h, SMMC-7721 human hepatocellular carcinoma cells
Experimental: (§1) The in vitro antitumor activities of the synthesized compounds 7a-l and 8a-l against five human cancer cells were evaluated in MTT assays using 5-fluorouracil (5-FU) and harmine as positive controls. These cells are human hepatocellular carcinoma cells (SMMC-7721 and Hep G2), human colon cancer cell lines (HCT116), human bladder carcinoma cells (EJ), and human lung cancer cells (H460).
(§2) Hepatocellular carcinoma cells (SMMC-7721 and Hep G2), Human colon cancer cell lines (HCT116), human bladder carcinoma cells (EJ) or human lung cancer cells (H460) at 10^4 cells per well were cultured in 10% FBS DMEM in 96-well flat-bottom microplates overnight. The cells were incubated in triplicate with, or without, different concentrations of each test compound for 48 h. During the last 4 h incubation, 30 μL of tetrazolium dye (MTT) solution (5 mg mL^−1) was added to each well. The resulting MTT-formazan crystals were dissolved in 150 μL DMSO, and absorbance was measured spectrophotometrically at 570 nm using an ELISA plate reader. The inhibition induced by each test compound at the indicated concentrations was expressed as a percentage. The concentration required for 50% inhibition (IC50) was calculated using the software (GraphPadPrism Version 4.03).

[2] = system: HCT116 cells; assay: MTT assay, proliferation of HCT116 cells; format: cell-based; conditions: Homo sapiens, HCT-116, 48 h, read-out: In vitro cytotoxicity (IC50) HCT116
Experimental: as §1, §2

[3] = system: human cancer cells (SMMC-7721, Hep G2, HCT116, EJ, H460); assay: MTT assay, summary statements across several human cancer cell lines; format: cell-based; conditions: Homo sapiens; SMMC-7721, Hep G2, HCT116; MTT; read-out: IC50 values for liver and colon cancer cells growth (range over cell lines)
Experimental: as §1, §2

[4] = system: Hep G2 cells; assay: MTT assay, proliferation of Hep G2 cells; format: cell-based; conditions: Homo sapiens, HepG2, 48 h, read-out: In vitro cytotoxicity (IC50) Hep G2
Experimental: as §1, §2

[5] = system: SMMC-7721 cells; assay: Flow cytometry assay of cell apoptosis (FITC-Annexin V/PI); format: cell-based, human; conditions: 14 μM, 48 h
Experimental: To determine whether apoptosis is involved in the anti-proliferative effects of 8h, apoptosis assay was performed using SMMC-7721 cells. The cells were incubated with either vehicle alone, different concentrations of 8h (7.0 or 14 μM), or 14 μM 5-FU for 48 h, and then stained with FITC-Annexin V and propidium iodide (PI). The percentages of apoptotic SMMC-7721 cells were determined by flow cytometry analysis. In the vehicle group, the occurrence of SMMC-7721 cell apoptosis was minimal. […] Low concentration of 8h (7.0 μM) induced 46% SMMC-7721 cell apoptosis, while the higher dose (14 μM) of 8h induced 63% SMMC-7721 cell apoptosis.
Figure 4 Compound 8h induced SMMC-7721 cell apoptosis in vitro. SMMC-7721 cells were incubated with the indicated concentrations of 8h and 14 μM 5-FU for 48 h, and the cells were stained with FITC-Annexin V and PI, followed by flow cytometry analysis. (A) Flow cytometry analysis. (B) Quantitative analysis of apoptotic cells. Data are expressed as means ± SD of the percentages of apoptotic cells from three independent experiments. *P < 0.01 vs control.
SMMC-7721 cells were cultured overnight and incubated in triplicate with compound 8h (7.0 and 14 μM), 5-FU (14 μM), or vehicle for 48 h. The cells were harvested, and stained with FITC-Annexin V and PI (BioVision) at room temperature for 15 min. The percentage of apoptotic cells was determined by flow cytometry (Beckman Coulter) analysis.

[6] = system: LO2 cells; assay: MTT assay, proliferation of normal liver LO2 cells; format: cell-based, human; conditions: 25 μM, 48 h, MTT assay
Experimental: Given the strong growth inhibitory activity of 8h in vitro, it was profiled for antitumor selectivity by examining its inhibitory effects on the growth of SMMC-7721 cells and LO2 cells (human hepatocellular normal cells).
Figure 3 (A) Inhibitory effects of 8h on the proliferation of SMMC-7721 and LO2 cells. Cells were incubated with the indicated concentrations of 8h for 48 h. Cell proliferation was assessed using the MTT assay. Data are means ± SD of the inhibition (%) from three independent experiments. (B) Inhibitory effects of 5h, 8h, and SA or the vehicle control against SMMC-7721 and LO2 cells. SMMC-7721 and LO2 cells were incubated with the indicated compounds at 25 μM for 48 h, and cell proliferation was assessed by the MTT assay. Data are means ± SD of the inhibition (%) from three independent experiments. *P < 0.01 versus control of SMMC-7721, ^#P < 0.01 inhibitory effects of 8h in SMMC-7721 versus LO2 cells.
as §2

SMILES	IC50 [1] [µM]	IC50 [2] [µM]	IC50 [3] [µM]	IC50 [4] [µM]	SMMC-7721 cell apoptosis (percentage of apoptotic cells) [5] [%]	inhibition at 25 µM ([1]; SMMC-7721, 25 μM, 48 h, MTT assay, read-out: Inhibition of SMMC-7721 cell proliferation) [%]	Inhibitory effect on LO2 cells [6]
O=c1[nH]cc(F)c(=O)[nH]1 [5-FU, 5-fluorouracil, reference compound]	28.7	19.6	19.6 to 35.2	35.2	22		
Cc1nc(C(=O)NCCCCCN)cc2c1[nH]c1ccccc12 [5h, N-(5-Aminopentyl)-1-methyl-9H-pyrido[3,4-b]indole-3-carboxamide]	27.2 ± 3.4					~42	a similar effect was seen in the non-tumor LO2 cells; also recorded: high toxicities
